Reference: ChEMBL document CHEMBL6115038, “Immunoproteasome as a Target for Prodrugs” (J Med Chem, 2025)
One block for each compound: values may come before it. Calls of active or inactive are those of the source. The calls are words filed in the database; no cut-off is given here. Peptide text beside a SMILES is read from it. * marks the point of attachment. Doxorubicin(3'-N) = COc1cccc2c1C(=O)c1c(O)c3c(c(O)c1C2=O)C[C@@](O)(C(=O)CO)C[C@@H]3O[C@H]1C[C@H](N*)[C@H](O)[C@H](C)O1; Morpholinoacetyl = O=C(CN1CCOCC1)*

Tests used:
[1] = Cytotoxicity against human AC16 [Human hybrid] cells assessed as cell viability at 10 uM incubated for 72 hrs by celltiter-glo assay relative to control; assay type: toxicity, cell-based; conditions: read-out: Activity
Ramos [2] = assay: Cytotoxicity against human Ramos cells assessed as cell viability incubated for 24 hrs by celltiter-glo assay; assay type: functional, cell-based
[3] = molecular target: T1, von Hippel-Lindau disease tumor suppressor/Bromodomain-containing protein 4 (Homo sapiens) (UniProt O60885+P40337); assay: PROTAC activity at BRD4/VHL in human Ramos cells expressing iCP assessed as induction of BRD4 degradation at 1 nM compound administered as prodrug-PROTAC incubated for 18 hrs by immunoblotting analysis; assay type: cell-based
[4] = molecular target: T1, von Hippel-Lindau disease tumor suppressor/Bromodomain-containing protein 4 (Homo sapiens); assay: PROTAC activity at BRD4/VHL in human Ramos cells expressing iCP assessed as induction of BRD4 degradation at 100 nM compound administered as prodrug-PROTAC incubated for 18 hrs in presence of ONX-0914 by immunoblotting analysis; assay type: cell-based
[5] = Cytotoxicity against human AC16 [Human hybrid] cells expressing iCP assessed as cell viability incubated for 24 hrs by celltiter-glo assay; assay type: toxicity, cell-based
20S proteasome [6] = assay: Prodrug release in tris HCL buffer assessed as human 20S immunoproteasome-mediated hydrolysis by measuring Dox release measured upto 8 hrs by mass spectrometry analysis; assay type: ADME, protein-complex assay
20S proteasome [7] = assay: Prodrug release in tris HCL buffer at pH 7.4 assessed as human 20S immunoproteasome mediated hydrolysis by measuring Dox release at 10 uM incubated for 4 hrs in presence of 37.5 to 75 nM of PA28alpha/beta activated complex by mass spectrometry analysis; assay type: ADME, protein-complex assay; conditions: pH 7.4, 4 h
20S proteasome [8] = assay: Prodrug release in tris HCL buffer at pH 7.4 assessed as human 20S immunoproteasome mediated hydrolysis by measuring Dox release at 10 uM incubated for 4 hrs in presence of PA28alpha/beta activated complex by mass spectrometry analysis; assay type: ADME, protein-complex assay; conditions: pH 7.4, 4 h
20S proteasome [9] = assay: Prodrug release in tris HCL buffer at pH 7.4 assessed as human 20S immunoproteasome mediated hydrolysis by measuring Dox release at 10 uM incubated for 90 mins in presence of PA28alpha/beta activated complex by fluorescence based analysis; assay type: ADME, protein-complex assay; conditions: pH 7.4, 1.5 h
[10] = Prodrug release in tris HCL buffer assessed as human 20S proteasome core particle-mediated hydrolysis by measuring Dox release measured for 4 hrs by mass spectrometry analysis; assay type: ADME
[11] = Prodrug release in tris HCL buffer assessed as human 20S proteasome core particle-mediated hydrolysis by measuring Dox release measured for 4 hrs in presence of PA28alpha/beta activated complex by mass spectrometry analysis; assay type: ADME
[12] = Cytotoxicity against human AC16 [Human hybrid] cells assessed as cell viability at 20 uM incubated for 72 hrs by celltiter-glo assay relative to control; assay type: toxicity, cell-based; conditions: read-out: Activity
Ramos [13] = assay: Cytotoxicity against human Ramos cells assessed as cell viability incubated for 72 hrs by celltiter-glo assay; assay type: functional, cell-based
MM.1R = assay: Cytotoxicity against human MM1.R cells assessed as cell viability at 0.0001 to 100 uM incubated for 72 hrs by celltiter-glo assay; assay type: functional, cell-based; conditions: dose 0.0001-100 µM
Raji = assay: Cytotoxicity against human Raji cells assessed as cell viability at 0.0001 to 100 uM incubated for 72 hrs by celltiter-glo assay; assay type: functional, cell-based; conditions: dose 0.0001-100 µM
[14] = Stability in human serum incubated for 1 hr by mass spectrometry analysis; assay type: ADME, cell-free
[15] = Cytotoxicity against human AC16 [Human hybrid] cells assessed as cell viability incubated for 72 hrs by celltiter-glo assay; assay type: toxicity, cell-based

T1 sequence (P40337 whole entry, looked up, other chains not shown): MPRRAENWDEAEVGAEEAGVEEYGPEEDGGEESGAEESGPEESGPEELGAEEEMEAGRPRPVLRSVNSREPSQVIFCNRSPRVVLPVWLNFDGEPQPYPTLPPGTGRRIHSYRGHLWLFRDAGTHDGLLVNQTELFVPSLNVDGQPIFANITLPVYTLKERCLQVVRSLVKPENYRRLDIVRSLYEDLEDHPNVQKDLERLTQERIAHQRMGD

Structure (SMILES): COc1cccc2c1C(=O)c1c(O)c3c(c(O)c1C2=O)C[C@@](O)(C(=O)CO)C[C@@H]3O[C@H]1C[C@H](NC(C)=O)[C@H](O)[C@H](C)O1
viability at 72 h, 10 µM [1]: > 90%

Structure (SMILES): Cc1ncsc1-c1ccc([C@H](C)NC(=O)[C@@H]2C[C@@H](O)CN2C(=O)[C@@H](NC(=O)COCCCOCCNC(=O)C[C@@H]2N=C(c3ccc(Cl)cc3)c3c(sc(C)c3C)-n3c(C)nnc32)C(C)(C)C)cc1
IC50 (Ramos [2]): 10 nM
Activity [3]: Active

Structure (SMILES): CSCC[C@H](NC(=O)[C@@H](NC(=O)[C@H](C)NC(=O)CN1CCOCC1)[C@@H](C)O)C(=O)N[C@@H](Cc1c[nH]c2ccccc12)C(=O)Nc1ccc(COC(=O)O[C@H]2C[C@H](C(=O)N[C@@H](C)c3ccc(-c4scnc4C)cc3)N(C(=O)[C@@H](NC(=O)COCCCOCCNC(=O)C[C@@H]3N=C(c4ccc(Cl)cc4)c4c(sc(C)c4C)-n4c(C)nnc43)C(C)(C)C)C2)cc1
IC50 (Ramos [2]): 10 nM
Activity [4]: inactive
Activity [3]: Active
Activity [5]: Toxic

Structure (SMILES): COc1cccc2c1C(=O)c1c(O)c3c(c(O)c1C2=O)C[C@@](O)(C(=O)CO)C[C@@H]3O[C@H]1C[C@H](NC(=O)[C@H](C)NC(=O)[C@H](C)NC(=O)[C@H](C)NC(=O)[C@H](C)NC(C)=O)[C@H](O)[C@H](C)O1 (Ac-AAAA-{Doxorubicin(3'-N)})
Drug metabolism (20S proteasome [6]): metabolite_detected
Drug metabolism (20S proteasome [7]): metabolite_notdetected

Structure (SMILES): COc1cccc2c1C(=O)c1c(O)c3c(c(O)c1C2=O)C[C@@](O)(C(=O)CO)C[C@@H]3O[C@H]1C[C@H](N)[C@H](O)[C@H](C)O1 [DOXORUBICIN]
IC50 at 72 h [15]: 233 nM

Further lines, with some results ahead:

Drug metabolism (20S proteasome [6]): metabolite_detected
Drug metabolism (20S proteasome [8]): metabolite_detected
Drug metabolism (20S proteasome [9]): metabolite_detected
Structure (SMILES): COc1cccc2c1C(=O)c1c(O)c3c(c(O)c1C2=O)C[C@@](O)(C(=O)CO)C[C@@H]3O[C@H]1C[C@H](NC(=O)[C@H](Cc2c[nH]c3ccccc23)NC(=O)[C@H](CCSC)NC(=O)[C@@H](NC(=O)[C@H](C)NC(C)=O)[C@@H](C)O)[C@H](O)[C@H](C)O1 (Ac-ATMW-{Doxorubicin(3'-N)})

Drug metabolism (20S proteasome [6]): metabolite_detected
Drug metabolism [10]: metabolite_notdetected
Drug metabolism [11]: metabolite_detected
Drug metabolism (20S proteasome [7]): metabolite_notdetected
Structure (SMILES): COc1cccc2c1C(=O)c1c(O)c3c(c(O)c1C2=O)C[C@@](O)(C(=O)CO)C[C@@H]3O[C@H]1C[C@H](NC(=O)[C@H](Cc2ccc(O)cc2)NC(=O)[C@@H](NC(=O)[C@H](CC(C)C)NC(=O)[C@H](CC(C)C)NC(C)=O)C(C)C)[C@H](O)[C@H](C)O1 (Ac-LLVY-{Doxorubicin(3'-N)})

Stability [14]: Stable
Structure (SMILES): COc1cccc2c1C(=O)c1c(O)c3c(c(O)c1C2=O)C[C@@](O)(C(=O)CO)C[C@@H]3O[C@H]1C[C@H](NC(=O)[C@H](Cc2c[nH]c3ccccc23)NC(=O)[C@H](CCSC)NC(=O)[C@@H](NC(=O)[C@H](C)NC(=O)CN2CCOCC2)[C@@H](C)O)[C@H](O)[C@H](C)O1 (Morpholinoacetyl-ATMW-{Doxorubicin(3'-N)})
viability at 72 h, 20 µM [12]: > 80%
IC50 (Ramos [13]): 5500 nM
Activity (MM.1R): Active
Activity (Raji): Active
